The assay deals with 282377-053-R-J1-PDC complex spheroid viability. In words: Anticancer human tumor 282377-053-R-J1-PDC patient-derived colon adenocarcinoma cell line growth inhibition [RAS]. The following applies: for viability, T/C: stronger effect = lower value. The essentials: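 Agents were tested in combination matrices in half-log decrements from a top concentration at or near clinical Cmax (10 microM if undetermined). Targets were multi-cell spheroids of tumour lines plus HUVEC and MSC stromal cells.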

Our source for the viability, T/C and IC50 values is PubChem BioAssay AID2060905 (Molecular Pharmacology Branch, DTP, NCI, 2025).

Structures are written as SMILES. “And” between values parts separate entries of the source, which are not always exact repeats. Identical values can stand only once.

For orientation: viability, T/C means the ratio of treated to control. By IC50 is commonly meant the concentration that inhibits the measured activity by half.
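Further: spheroids exposed to agents for seven days before readout.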
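Wherever viability, T/C is given: luminescence viability as percent of DMSO vehicle control wells.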

In the case of `Cc1nc(N2CCC3(CC2)COC(C)C3N)c(CO)nc1Sc1ccnc(N)c1Cl` (stereo unspecified), the viability, T/C is 93.8% and 100% (2×) and 88.5% (compound 0.0316 µM); 94.9% [middle of 4 runs] (compound 0.316 µM); 102% [middle of 4 runs] (compound 1 µM). Besides, the IC50 (curve of compound) is above 10000 nM.

On to `CCN1CCN(Cc2ccc(Nc3ncc(F)c(-c4cc(F)c5nc(C)n(C(C)C)c5c4)n3)nc2)CC1` + C#Cc1c(F)ccc2cc(O)cc(-c3ncc4c(N5CC6CCC(C5)N6)nc(OCC56CCCN5CC(F)C6)nc4c3F)c12, for which the IC50 is above 1000 nM (curve of first compound, second compound 0.0316 µM); above 1000 nM (curve of first compound, second compound 0.1 µM); above 1000 nM (curve of first compound, second compound 0.316 µM); above 1000 nM (curve of first compound, second compound 1 µM); above 1000 nM (curve of first compound, second compound 3.16 µM); above 1000 nM (curve of first compound, second compound 10 µM). The viability, T/C (second compound 0.0316 µM, first compound 0.00316 µM) is 101%; the viability, T/C (second compound 0.0316 µM, first compound 0.01 µM) is 101%; the viability, T/C (second compound 0.0316 µM, first compound 0.0316 µM) was 112%; the viability, T/C (second compound 0.0316 µM, first compound 0.1 µM) was 119%; the viability, T/C (second compound 0.0316 µM, first compound 0.316 µM) is 127%; the viability, T/C (second compound 0.0316 µM, first compound 1 µM) is 127%. For the same compound, the viability, T/C is, setting by setting: (second compound 0.1 µM, first compound 0.00316 µM) 125%; (second compound 0.1 µM, first compound 0.01 µM) 95.5%; (second compound 0.1 µM, first compound 0.0316 µM) 107%; (second compound 0.1 µM, first compound 0.1 µM) 106%; (second compound 0.1 µM, first compound 0.316 µM) 135%; (second compound 0.1 µM, first compound 1 µM) 126%. Moreover, the viability, T/C (second compound 0.316 µM, first compound 0.00316 µM) is 105%; the viability, T/C (second compound 0.316 µM, first compound 0.01 µM) is 108%; the viability, T/C (second compound 0.316 µM, first compound 0.0316 µM) was 109%; the viability, T/C (second compound 0.316 µM, first compound 0.1 µM) was 121%; the viability, T/C (second compound 0.316 µM, first compound 0.316 µM) is 117%; the viability, T/C (second compound 0.316 µM, first compound 1 µM) is 129%. Besides, the viability, T/C reads like this: (second compound 1 µM, first compound 0.00316 µM) 97.3%; (second compound 1 µM, first compound 0.01 µM) 100%; (second compound 1 µM, first compound 0.0316 µM) 96.7%; (second compound 1 µM, first compound 0.1 µM) 103%; (second compound 1 µM, first compound 0.316 µM) 119%; (second compound 1 µM, first compound 1 µM) 132%. The viability, T/C reads like this: (second compound 3.16 µM, first compound 0.00316 µM) 107%; (second compound 3.16 µM, first compound 0.01 µM) 112%; (second compound 3.16 µM, first compound 0.0316 µM) 103%; (second compound 3.16 µM, first compound 0.1 µM) 118%; (second compound 3.16 µM, first compound 0.316 µM) 134%; (second compound 3.16 µM, first compound 1 µM) 131%. Besides, the viability, T/C runs as follows: (second compound 10 µM, first compound 0.00316 µM) 90.2%; (second compound 10 µM, first compound 0.01 µM) 90.1%; (second compound 10 µM, first compound 0.0316 µM) 101%; (second compound 10 µM, first compound 0.1 µM) 111%; (second compound 10 µM, first compound 0.316 µM) 104%; (second compound 10 µM, first compound 1 µM) 120%.
